Results as given in patent US20090247559A1 (Exelixis, Inc., priority 2007, published 2009).
Counter-ions that a name gives are not always drawn. Like-named read-outs stand apart in the source and are kept apart here.

Experiments:
[1] = molecular target: CK2 (Homo sapiens, UniProt P68400); experiment: CK2 inhibition, biochemical chemiluminescence holoenzyme assay (Kinase Glo, IC50 determination); conditions: Table 1 activity class; symbol given only if active; read-out: CK2 IC50 (Activity C)
Summary of the method: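 Holoenzyme CK2 assay; compounds pre-incubated with substrate and enzyme, then reacted 150 min at 24-27° C. Remaining ATP measured as luminescence with Kinase Glo, and IC50 derived from the signal.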

[2] = molecular target: CDC7 (Homo sapiens, UniProt O00311); experiment: CDC7 inhibition, biochemical chemiluminescence assay (Kinase Glo, IC50 determination)
Summary of the method: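 CDC7 enzyme preincubated with compound 10 min at ambient temperature, then ATP mix in Tris Base added; reaction 90 min at 24-27 °C. Remaining ATP quantified by Kinase Glo luminescence to give IC50.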

[3] = molecular target: PIM (PIM-1, PIM-2, and/or PIM-3); experiment: PIM-1, PIM-2 and PIM-3 inhibition, biochemical chemiluminescence assays (Kinase Glo, IC50 determination); conditions: Table 1 activity class; PIM refers to PIM-1, PIM-2, and/or PIM-3; read-out: PIM IC50 (Activity B)
[4] = CDC7 IC50 (Activity A), Table 1 activity class, symbol given only if active
[5] = CDC7 IC50 value, compounds in Table 1
[6] = Table 1 activity class, symbol given only if active, read-out: CDC7 IC50 (Activity A)
[7] = compounds in Table 1, read-out: CDC7 IC50 value

Sequence of CK2 (P68400 whole entry): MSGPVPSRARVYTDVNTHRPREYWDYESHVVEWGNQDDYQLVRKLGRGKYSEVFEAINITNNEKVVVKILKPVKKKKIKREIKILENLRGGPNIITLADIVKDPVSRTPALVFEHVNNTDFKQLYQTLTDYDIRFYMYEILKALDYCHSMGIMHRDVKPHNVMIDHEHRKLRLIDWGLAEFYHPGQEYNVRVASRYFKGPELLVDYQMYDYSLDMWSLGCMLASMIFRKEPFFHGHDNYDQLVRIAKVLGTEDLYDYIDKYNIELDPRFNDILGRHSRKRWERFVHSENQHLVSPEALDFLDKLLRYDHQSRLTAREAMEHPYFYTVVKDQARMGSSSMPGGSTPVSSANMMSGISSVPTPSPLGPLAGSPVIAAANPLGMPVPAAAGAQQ
Sequence of CK2 (P67870 whole entry partner): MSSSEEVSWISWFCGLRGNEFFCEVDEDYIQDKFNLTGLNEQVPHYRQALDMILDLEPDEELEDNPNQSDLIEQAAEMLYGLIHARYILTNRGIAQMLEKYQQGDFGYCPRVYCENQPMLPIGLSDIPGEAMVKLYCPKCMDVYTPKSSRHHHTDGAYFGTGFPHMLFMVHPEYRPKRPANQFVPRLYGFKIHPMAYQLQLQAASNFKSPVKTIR
Sequence of CDC7 (O00311 whole entry): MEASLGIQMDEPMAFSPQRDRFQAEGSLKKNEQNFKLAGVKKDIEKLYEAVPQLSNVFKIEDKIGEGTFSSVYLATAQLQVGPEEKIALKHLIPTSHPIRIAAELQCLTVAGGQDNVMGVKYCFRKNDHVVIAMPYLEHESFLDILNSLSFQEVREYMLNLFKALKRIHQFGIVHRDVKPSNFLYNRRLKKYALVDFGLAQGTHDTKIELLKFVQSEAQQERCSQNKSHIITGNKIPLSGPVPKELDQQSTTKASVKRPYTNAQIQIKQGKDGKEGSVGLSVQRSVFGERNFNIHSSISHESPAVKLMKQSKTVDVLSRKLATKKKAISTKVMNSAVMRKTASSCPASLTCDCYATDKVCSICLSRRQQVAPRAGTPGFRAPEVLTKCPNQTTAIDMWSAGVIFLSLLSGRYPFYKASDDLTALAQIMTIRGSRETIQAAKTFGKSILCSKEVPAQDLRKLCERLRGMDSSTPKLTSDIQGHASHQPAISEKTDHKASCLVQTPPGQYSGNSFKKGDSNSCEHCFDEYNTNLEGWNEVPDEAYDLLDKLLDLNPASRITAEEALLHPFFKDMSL
Sequence of CDC7 (Q9UBU7 whole entry partner): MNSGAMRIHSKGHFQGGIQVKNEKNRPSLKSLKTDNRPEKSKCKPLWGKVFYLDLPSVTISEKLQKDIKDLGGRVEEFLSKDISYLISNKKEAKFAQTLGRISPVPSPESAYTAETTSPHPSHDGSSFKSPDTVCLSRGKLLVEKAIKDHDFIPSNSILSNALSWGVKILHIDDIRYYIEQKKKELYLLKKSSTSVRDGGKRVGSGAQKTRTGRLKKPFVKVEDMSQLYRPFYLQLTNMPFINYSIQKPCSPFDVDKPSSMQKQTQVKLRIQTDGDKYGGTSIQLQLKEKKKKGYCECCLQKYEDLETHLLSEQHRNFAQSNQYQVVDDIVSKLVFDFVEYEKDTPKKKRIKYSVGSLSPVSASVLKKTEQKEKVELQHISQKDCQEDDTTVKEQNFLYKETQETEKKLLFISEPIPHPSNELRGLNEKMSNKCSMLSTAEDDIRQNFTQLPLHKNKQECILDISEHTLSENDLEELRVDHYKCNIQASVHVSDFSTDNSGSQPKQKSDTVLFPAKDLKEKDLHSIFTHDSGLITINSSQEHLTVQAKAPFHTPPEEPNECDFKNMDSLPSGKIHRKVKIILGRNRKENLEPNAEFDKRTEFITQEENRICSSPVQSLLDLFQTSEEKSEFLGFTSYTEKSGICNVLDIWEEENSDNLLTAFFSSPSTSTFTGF

Compound | IC50 [1] [µM] | IC50 [2, 4] [µM] | IC50 [2, 5] [µM] | IC50 [3] [µM] | IC50 [2, 6] [µM] | IC50 [2, 7] [µM]
O=c1[nH]c([C@@H]2CC3CCCCC3N2)nc2c1oc1ccc(Br)cc12 (stereo partly drawn) [Compound 501, 8-bromo-2-[(2S)-octahydro-1H-indol-2-yl][1]benzofuro[3,2-d]pyrimidin-4(3H)-one] | < 10 | < 10 | < 0.1 | < 10 |  | 
O=c1[nH]c(CN2CCN(CCn3ccnc3)CC2)nc2c1oc1ccc(Br)cc12 [Compound 113, 8-bromo-2-({4-[2-(1H-imidazol-1-yl)ethyl]piperazin-1-yl}methyl)[1]benzofuro[3,2-d]pyrimidin-4(3H)-one] | < 10 |  |  | < 10 | < 10 | 
CN1CCN(c2ccc(CNCCc3nc4c(oc5ccc(Br)cc54)c(=O)[nH]3)cc2)CC1 [Compound 111, 8-bromo-2-[2-({[4-(4-methylpiperazin-1-yl)phenyl]methyl}amino)ethyl][1]benzofuro[3,2-d]pyrimidin-4(3H)-one] | < 10 |  |  | < 10 | < 10 | 
O=C(Nc1ccc(-c2nc3c(oc4ccc(Br)cc43)c(=O)[nH]2)c(Cl)c1)C1CCOC1 (stereo not shown) [Compound 313, N-[4-(8-bromo-4-oxo-3,4-dihydro[1]benzofuro[3,2-d]pyrimidin-2-yl)-3-chlorophenyl]tetrahydrofuran-3-carboxamide] | < 10 |  |  | < 10 | < 10 | 
O=C(O)C1CCN(Cc2nc3c(oc4ccc(Br)cc43)c(=O)[nH]2)C1 (stereo not shown) [Compound 103, 1-[(8-bromo-4-oxo-3,4-dihydro[1]benzofuro[3,2-d]pyrimidin-2-yl)methyl]pyrrolidine-3-carboxylic acid] | < 10 |  |  | < 10 | < 10 | < 0.1
O=c1[nH]c(CC2CCCNC2)nc2c1oc1ccc(Br)cc12 (stereo not shown) [Compound 194, 8-bromo-2-(piperidin-3-ylmethyl)[1]benzofuro[3,2-d]pyrimidin-4(3H)-one] | < 10 |  |  | < 10 | < 10 | 
O=c1[nH]c(CN2CC3CCC2C3)nc2c1oc1ccc(Br)cc12 (stereo not shown) [Compound 520, 2-(2-azabicyclo[2.2.1]hept-2-ylmethyl)-8-bromo[1]benzofuro[3,2-d]pyrimidin-4(3H)-one] | < 10 | < 10 | < 0.1 | < 10 |  | 
CN(C)Cc1ccc(-c2nc3c(oc4ccc(Br)cc43)c(=O)[nH]2)c(Cl)c1 [Compound 381, 8-bromo-2-{2-chloro-4-[(dimethylamino)methyl]phenyl}[1]benzofuro[3,2-d]pyrimidin-4(3H)-one] | < 10 |  |  | < 10 | < 10 | 
Cc1ccccc1-c1nc2c(oc3ccc(Br)cc32)c(=O)[nH]1 [Compound 60, 8-bromo-2-(2-methylphenyl)[1]benzofuro[3,2-d]pyrimidin-4(3H)-one] | < 10 |  |  | < 10 | < 10 | 
O=c1[nH]c([C@@H]2CC3CCCCC3N2)nc2c1oc1ccc(Cl)cc12 (stereo partly drawn) [Compound 529, 8-chloro-2-[(2S)-octahydro-1H-indol-2-yl][1]benzofuro[3,2-d]pyrimidin-4(3H)-one] | < 10 | < 10 | < 0.1 | < 10 |  | 
O=c1[nH]c(-c2ccncc2Cl)nc2c1oc1ccc(Br)cc12 [Compound 112, 8-bromo-2-(3-chloropyridin-4-yl)[1]benzofuro[3,2-d]pyrimidin-4(3H)-one] | < 10 |  |  | < 10 | < 10 | 
CNCc1nc2c(oc3ccc(Br)cc32)c(=O)[nH]1 [Compound 516, 8-bromo-2-[(methylamino)methyl][1]benzofuro[3,2-d]pyrimidin-4(3H)-one] | < 10 |  |  | < 10 | < 10 | < 0.1
O=c1[nH]c([C@@H]2C[C@@H](O)CN2)nc2c1oc1ccc(Br)cc12 [Compound 488, 8-bromo-2-[(2S,4R)-4-hydroxypyrrolidin-2-yl][1]benzofuro[3,2-d]pyrimidin-4(3H)-one] | < 10 |  |  | < 10 | < 10 | < 0.1
O=C(NCc1ccccc1Cl)C1CCN(Cc2nc3c(oc4ccc(Br)cc43)c(=O)[nH]2)C1 (stereo not shown) [Compound 224, 1-[(8-bromo-4-oxo-3,4-dihydro[1]benzofuro[3,2-d]pyrimidin-2-yl)methyl]-N-[(2-chlorophenyl)methyl]pyrrolidine-3-carboxamide] | < 10 |  |  | < 10 | < 10 | 
O=c1[nH]c(CNC2CCCCC2)nc2c1oc1ccc(Br)cc12 [Compound 504, 8-bromo-2-[(cyclohexylamino)methyl][1]benzofuro[3,2-d]pyrimidin-4(3H)-one] | < 10 |  |  | < 10 | < 10 | 
CC(C)(C)OC(=O)N1CCC(NCc2ccc(-c3nc4c(oc5ccc(Br)cc54)c(=O)[nH]3)c(Cl)c2)CC1 [Compound 386, 1,1-dimethylethyl 4-({[4-(8-bromo-4-oxo-3,4-dihydro[1]benzofuro[3,2-d]pyrimidin-2-yl)-3-chlorophenyl]methyl}amino)piperidine-1-carboxylate] | < 10 |  |  | < 10 | < 10 | 
CN1CCCC(c2nc3c(oc4ccc(Br)cc43)c(=O)[nH]2)C1 (stereo not shown) [Compound 184, dihydrochloride] | < 10 |  |  | < 10 | < 10 | < 0.1
O=c1[nH]c(-c2ccc([N+](=O)[O-])cc2Cl)nc2c1oc1ccc(Br)cc12 [Compound 33, 8-Bromo-2-(2-chloro-4-nitrophenyl)[1]benzofuro[3,2-d]pyrimidin-4(3H)-one] | < 10 |  |  | < 10 | < 10 | 
O=C(Nc1ccc(-c2nc3c(oc4ccc(Br)cc43)c(=O)[nH]2)c(Cl)c1)c1ccncc1Cl [Compound 275, N-[4-(8-bromo-4-oxo-3,4-dihydro[1]benzofuro[3,2-d]pyrimidin-2-yl)-3-chlorophenyl]-3-chloropyridine-4-carboxamide] | < 10 |  |  | < 10 | < 10 | 
COc1ccc2oc3c(=O)[nH]c(-c4ccc([N+](=O)[O-])cc4Cl)nc3c2c1 [Compound 124, 2-(2-chloro-4-nitrophenyl)-8-(methyloxy)[1]benzofuro[3,2-d]pyrimidin-4(3H)-one] | < 10 |  |  | < 10 | < 10 | 
CCOC(=O)C1CCN(Cc2nc3c(oc4ccc(Br)cc43)c(=O)[nH]2)C1 (stereo not shown) [Compound 269, Ethyl 1-[(8-bromo-4-oxo-3,4-dihydro[1]benzofuro[3,2-d]pyrimidin-2-yl)methyl]pyrrolidine-3-carboxylate] | < 10 |  |  | < 10 | < 10 | < 0.1
C[C@H](O)c1nc2c(oc3ccc(Br)cc32)c(=O)[nH]1 [Compound 497, 8-bromo-2-[(1S)-1-hydroxyethyl][1]benzofuro[3,2-d]pyrimidin-4(3H)-one] | < 10 |  |  | < 10 | < 10 | 
O=c1[nH]c(CN2C[C@@H]3C[C@H]2CN3)nc2c1oc1ccc(Br)cc12 [Compound 119, 8-bromo-2-[(1S,4S)-2,5-diazabicyclo[2.2.1]hept-2-ylmethyl][1]benzofuro[3,2-d]pyrimidin-4(3H)-one] | < 10 | < 10 | < 0.1 | < 10 |  | 
CNCc1ccc(-c2nc3c(oc4ccc(Br)cc43)c(=O)[nH]2)c(Cl)c1 [Compound 422, 8-bromo-2-{2-chloro-4-[(methylamino)methyl]phenyl}[1]benzofuro[3,2-d]pyrimidin-4(3H)-one] | < 10 |  |  | < 10 | < 10 | 
O=c1[nH]c(CN2CCCC(F)C2)nc2c1oc1ccc(Br)cc12 (stereo not shown) [Compound 317, 8-bromo-2-[(3-fluoropiperidin-1-yl)methyl][1]benzofuro[3,2-d]pyrimidin-4(3H)-one] | < 10 |  |  | < 10 | < 10 | < 0.1
O=c1[nH]c(CNC2CCC2)nc2c1oc1ccc(Br)cc12 [Compound 252, 8-bromo-2-[(cyclobutylamino)methyl][1]benzofuro[3,2-d]pyrimidin-4(3H)-one] | < 10 |  |  | < 10 | < 10 | < 0.1
O=C(Nc1ccc(-c2nc3c(oc4ccc(Br)cc43)c(=O)[nH]2)c(Cl)c1)c1ccncc1 [Compound 143, N-[4-(8-bromo-4-oxo-3,4-dihydro[1]benzofuro[3,2-d]pyrimidin-2-yl)-3-chlorophenyl]pyridine-4-carboxamide] | < 10 |  |  | < 10 | < 10 | 
O=C(O)c1ccc(C(=O)Nc2ccc(-c3nc4c(oc5ccc(Br)cc54)c(=O)[nH]3)c(Cl)c2)nc1 [Compound 347, 6-({[4-(8-bromo-4-oxo-3,4-dihydro[1]benzofuro[3,2-d]pyrimidin-2-yl)-3-chlorophenyl]amino}carbonyl)pyridine-3-carboxylic acid] | < 10 |  |  | < 10 | < 10 | 
CN1CCC(c2nc3c(oc4ccc(Br)cc43)c(=O)[nH]2)C1 (stereo not shown) [Compound 289, 8-bromo-2-(1-methylpyrrolidin-3-yl)[1]benzofuro[3,2-d]pyrimidin-4(3H)-one] | < 10 |  |  | < 10 | < 10 | < 0.1
O=c1[nH]c(CN2CC[C@H](CO)C2)nc2c1oc1ccc(Br)cc12 [Compound 498, 8-bromo-2-{[(3S)-3-(hydroxymethyl)pyrrolidin-1-yl]methyl}[1]benzofuro[3,2-d]pyrimidin-4(3H)-one] | < 10 |  |  | < 10 | < 10 | < 0.1
